Measured values published in PubChem BioAssay AID330 (DTP/NCI, 2004).
Values joined by “and” are separate entries in the source; they are usually repeats but may differ in a detail not shown here. Equal values may be shown once. Toxic doses and inconclusive results are not listed. How the source made its calls: active means survival T/C of 150% or more; inactive means T/C below 125% in these data.

Tested on: P388 leukemia ip, CD2F1 mice, survival T/C
Assay: NCI In Vivo Anticancer Drug Screen. Data for tumor model P388 Leukemia (intraperitoneal) in CD2F1 (CDF1) mice
Settings: endpoint: median survival time, higher = longer survival
Procedure, shortened: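 Mice carrying the transplanted tumor received test compound or vehicle. Survival was recorded in each group, and the value is the treated-group measurement divided by that of the vehicle-treated control group.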

[1] = dose: 100.0 mg/kg/injection, schedule: Q04DX002 (ip), vehicle: saline with Tween-80
[2] = dose: 200.0 mg/kg/injection, schedule: Q04DX002 (ip), vehicle: saline with Tween-80
[3] = dose: 400.0 mg/kg/injection, schedule: Q04DX002 (ip), vehicle: saline with Tween-80
[4] = dose: 60.0 mg/kg/injection, schedule: Q01DX005 (ip), vehicle: saline with Tween-80
[5] = dose: 120.0 mg/kg/injection, schedule: Q01DX005 (ip), vehicle: saline with Tween-80
[6] = dose: 240.0 mg/kg/injection, schedule: Q01DX005 (ip), vehicle: saline with Tween-80
[7] = dose: 50.0 mg/kg/injection, schedule: Q01DX009 (ip), vehicle: Klucel (hydroxypropylcellulose) (HPC)
[8] = dose: 100.0 mg/kg/injection, schedule: Q01DX009 (ip), vehicle: Klucel (hydroxypropylcellulose) (HPC)
[9] = dose: 200.0 mg/kg/injection, schedule: Q01DX009 (ip), vehicle: Klucel (hydroxypropylcellulose) (HPC)
[10] = dose: 50.0 mg/kg/injection, schedule: Q01DX005 (ip), vehicle: Klucel (hydroxypropylcellulose) (HPC)
[11] = dose: 100.0 mg/kg/injection, schedule: Q01DX005 (ip), vehicle: Klucel (hydroxypropylcellulose) (HPC)
[12] = dose: 50.0 mg/kg/injection, schedule: Q01DX005 (ip), vehicle: saline with Tween-80
[13] = dose: 100.0 mg/kg/injection, schedule: Q01DX005 (ip), vehicle: saline with Tween-80
[14] = dose: 200.0 mg/kg/injection, schedule: Q01DX005 (ip), vehicle: saline with Tween-80
[15] = dose: 50.0 mg/kg/injection, schedule: Q01DX009 (ip), vehicle: saline
[16] = dose: 100.0 mg/kg/injection, schedule: Q01DX009 (ip), vehicle: saline
[17] = dose: 200.0 mg/kg/injection, schedule: Q01DX009 (ip), vehicle: saline
[18] = dose: 25.0 mg/kg/injection, schedule: Q01DX009 (ip), vehicle: saline
[19] = dose: 200.0 mg/kg/injection, schedule: Q01DX005 (ip), vehicle: Klucel (hydroxypropylcellulose) (HPC)

Measured: T/C

COCCOC(=O)CCn1nc(-c2ccccc2)c(-c2ccccc2)c(C#N)c1=O
inactive: [1] 104 % of control | [2] 106 % of control | [3] 100 % of control

O=[N+]([O-])c1cccc(S(=O)(=O)N/N=C/c2cccc([N+](=O)[O-])c2O)c1
inactive: [4] 106 % of control | [5] 107 % of control | [6] 104 % of control

Cc1cc(-c2ccc(N3C(=O)CC4(CCCC4)C3=O)c(C)c2)ccc1N1C(=O)CC2(CCCC2)C1=O
inactive: [7] 97 % of control | [8] 96 % of control | [9] 96 % of control

CCOP(=O)(CSc1ccccc1)NC1CCCCC1 (centres undefined)
inactive: dose: 25.0 mg/kg/injection, schedule: Q01DX005 (ip), vehicle: Klucel (hydroxypropylcellulose) (HPC) 94 % of control | [10] 94 % of control | [11] 88 % of control

CCOC(=O)Nc1c(CCO)n[nH]c1C
inactive: [12] 108 % of control | [13] 101 % of control | [14] 97 % of control

CC(=O)NC(Cc1ccccc1F)C(=O)O (centres undefined)
inactive: [15] 94 % of control | [16] 94 % of control | [17] 97 % of control

CC(O)C(NC(=O)c1ccccc1)C(=O)O (centres undefined)
inactive: dose: 50.0 mg/kg/injection, schedule: Q01DX009 (ip), vehicle: saline with Tween-80 99 % of control | dose: 100.0 mg/kg/injection, schedule: Q01DX009 (ip), vehicle: saline with Tween-80 95 % of control | dose: 200.0 mg/kg/injection, schedule: Q01DX009 (ip), vehicle: saline with Tween-80 91 % of control

O=C(CCN1CCOCC1)Nc1ccc(F)cc1F
inactive: [12] 99 % of control | [13] 94 % of control | [14] 94 % of control

CCCCCCCCCCCCSCN(CC)CC
inactive: [18] 89 % of control | [15] 99 % of control and 111 % of control | [16] 101 % of control and 103 % of control

O=C(O)C(=O)O.O=C(O)C(=O)O.[Co+2].[NH-]CCC[NH-]
inactive: dose: 12.5 mg/kg/injection, schedule: Q04DX002 (ip), vehicle: saline 99 % of control

COc1ccc(/C=C\C(C)=N\NC(=S)Nc2ccc(Br)cc2)cc1
inactive: [10] 97 % of control | [11] 96 % of control | [19] 89 % of control

O=C(O)CS(=O)(=O)CCS(=O)(=O)CC(=O)O
inactive: [15] 107 % of control | [16] 105 % of control | [17] 88 % of control

C/C(=N\O)c1cc(/C(C)=N/O)cc(/C(C)=N/O)c1
inactive: [15] 108 % of control | [16] 92 % of control

OCCNc1cc(Cl)c(N=C2N(Cc3ccccc3)CCN2Cc2ccccc2)c(Cl)c1
inactive: [10] 102 % of control | [11] 97 % of control | [19] 100 % of control

Brc1ccc(-c2cc(-c3cccs3)cc(-c3ccccc3)n2)cc1
inactive: [7] 100 % of control | [8] 108 % of control | [9] 101 % of control

CC(=O)OCC(=O)[C@@]1(O)CC[C@H]2[C@@H]3C[C@H](C)C4=CC(=O)CC[C@]4(C)[C@H]3[C@@H](O)C[C@@]21C
inactive: dose: 100.0 mg/kg/injection, schedule: Q04DX003 (ip), vehicle: saline with Tween-80 112 % of control | dose: 200.0 mg/kg/injection, schedule: Q04DX003 (ip), vehicle: saline with Tween-80 108 % of control | dose: 400.0 mg/kg/injection, schedule: Q04DX003 (ip), vehicle: saline with Tween-80 95 % of control

C[N+](C)([O-])CCCNc1c2ccccc2nc2cccc([N+](=O)[O-])c12
inactive: dose: 0.79 mg/kg/injection, schedule: Q01DX009 (ip), vehicle: saline 108 % of control | dose: 1.56 mg/kg/injection, schedule: Q01DX009 (ip), vehicle: saline 110 % of control | dose: 3.12 mg/kg/injection, schedule: Q01DX009 (ip), vehicle: saline 117 % of control and 118 % of control

Cc1ccc(NC(=O)/C(Cl)=C2/Sc3ccccc3NC2=O)cc1
inactive: [4] 96 % of control | [5] 100 % of control | [6] 95 % of control

CP1(=S)C=C(N2CCCC2)CC1 (centres undefined)
inactive: [7] 107 % of control and 109 % of control | [8] 99 % of control and 120 % of control | [9] 104 % of control and 95 % of control

C/C=C1\CN2C3CC45c6cc(OC)c(OC)cc6N(C)C4(O3)C2CC1C5(COC(=O)c1cc(OC)c(OC)c(OC)c1)C(=O)OC (centres undefined)
inactive: dose: 11.5 mg/kg/injection, schedule: Q01DX005 (ip), vehicle: acid diluted with saline 98 % of control | dose: 23.0 mg/kg/injection, schedule: Q01DX005 (ip), vehicle: acid diluted with saline 100 % of control | dose: 46.0 mg/kg/injection, schedule: Q01DX005 (ip), vehicle: acid diluted with saline 110 % of control | dose: 92.0 mg/kg/injection, schedule: Q01DX005 (ip), vehicle: acid diluted with saline 100 % of control

CCC1=CC2CC(c3cc4c(cc3OC)N(C)C3C(O)(C(=O)NC)C(OC(C)=O)C5(CC)C=CCN6CCC43C65)c3[nH]c4ccccc4c3CCN(C1)C2 (centres undefined)
inactive: dose: 0.06 mg/kg/injection, schedule: Q01DX009 (ip), vehicle: water 101 % of control | dose: 0.13 mg/kg/injection, schedule: Q01DX009 (ip), vehicle: water 101 % of control | dose: 0.25 mg/kg/injection, schedule: Q01DX009 (ip), vehicle: water 95 % of control | dose: 0.5 mg/kg/injection, schedule: Q01DX009 (ip), vehicle: water 89 % of control | dose: 1.0 mg/kg/injection, schedule: Q01DX009 (ip), vehicle: water 94 % of control | dose: 2.0 mg/kg/injection, schedule: Q01DX001 (ip), vehicle: water 103 % of control | dose: 2.0 mg/kg/injection, schedule: Q01DX009 (ip), vehicle: water 97 % of control | dose: 4.0 mg/kg/injection, schedule: Q01DX001 (ip), vehicle: water 99 % of control | dose: 8.0 mg/kg/injection, schedule: Q01DX001 (ip), vehicle: water 98 % of control | dose: 16.0 mg/kg/injection, schedule: Q01DX001 (ip), vehicle: water 94 % of control | dose: 25.0 mg/kg/injection, schedule: Q01DX001 (ip), vehicle: other 91 % of control | dose: 32.0 mg/kg/injection, schedule: Q01DX001 (ip), vehicle: water 100 % of control | dose: 100.0 mg/kg/injection, schedule: Q01DX001 (ip), vehicle: other 91 % of control | dose: 200.0 mg/kg/injection, schedule: Q01DX001 (ip), vehicle: other 94 % of control | dose: 400.0 mg/kg/injection, schedule: Q01DX001 (ip), vehicle: other 94 % of control

NNC(=O)c1ccccc1NC(=O)CSc1nc2ccccc2s1
inactive: [7] 104 % of control | [8] 101 % of control | [9] 101 % of control

COC(=O)C1CC=C(c2ccccc2)CNC1 (centres undefined)
inactive: dose: 100.0 mg/kg/injection, schedule: Q01DX001 (ip), vehicle: saline with Tween-80 93 % of control | dose: 200.0 mg/kg/injection, schedule: Q01DX001 (ip), vehicle: saline with Tween-80 94 % of control

O=C(O)CCCC(=O)c1ccccc1
inactive: [18] 105 % of control | [15] 100 % of control | [16] 101 % of control | [17] 108 % of control

CCn1c2nc(=O)n(C)c(=O)c-2[n+]([O-])c2cc(Br)c(C)cc21
inactive: [1] 96 % of control | [2] 94 % of control | [3] 96 % of control

O=C1C(c2ccccc2)=C(c2ccc(Br)cc2)C2(c3ccc(Br)cc3)CC12c1ccccc1 (centres undefined)
inactive: dose: 50.0 mg/kg/injection, schedule: Q01DX005 (ip), vehicle: Klucel + Tween-80 91 % of control | dose: 100.0 mg/kg/injection, schedule: Q01DX005 (ip), vehicle: Klucel + Tween-80 88 % of control

C/C=C\C(/C=C/C)(C(=O)OCCN(C)C)C(/C=C\C)(/C=C/C)C(=O)OCCN(C)C (centres undefined)
inactive: [12] 100 % of control | [13] 100 % of control | [14] 91 % of control

O=C1OC(Oc2ccccc2OC2OC(=O)c3ccccc32)c2ccccc21 (centres undefined)
inactive: [4] 98 % of control | [5] 106 % of control | [6] 100 % of control

COc1cc(/C=N/n2c(-c3ccccc3)nc3ccccc3c2=O)cc(Br)c1O
inactive: dose: 60.0 mg/kg/injection, schedule: Q01DX005 (ip), vehicle: Klucel (hydroxypropylcellulose) (HPC) 89 % of control | dose: 120.0 mg/kg/injection, schedule: Q01DX005 (ip), vehicle: Klucel (hydroxypropylcellulose) (HPC) 87 % of control | dose: 240.0 mg/kg/injection, schedule: Q01DX005 (ip), vehicle: Klucel (hydroxypropylcellulose) (HPC) 87 % of control

O=S1(=O)Oc2c(Cl)cc(Cl)cc2S(=O)(=O)Oc2c(Cl)cc(Cl)cc21
inactive: [4] 93 % of control | [5] 94 % of control | [6] 86 % of control
